Patent publication US11759462B2, “Spirocyclic compounds as tryptophan hydroxylase inhibitors” (priority 2013, dated 2023)
Where two headings read alike, the source gives them in different places.

Target: T1, Recombinant human TPH1 (MBP tagged) (Homo sapiens, UniProt P17752)
T1 construct: cloning full length human TPH1 cDNA in to a bacterial pMAL-c5E expression vector; made in house; host or cells: E. coli BL21 (DE3)
T1 sequence (P17752 1-444): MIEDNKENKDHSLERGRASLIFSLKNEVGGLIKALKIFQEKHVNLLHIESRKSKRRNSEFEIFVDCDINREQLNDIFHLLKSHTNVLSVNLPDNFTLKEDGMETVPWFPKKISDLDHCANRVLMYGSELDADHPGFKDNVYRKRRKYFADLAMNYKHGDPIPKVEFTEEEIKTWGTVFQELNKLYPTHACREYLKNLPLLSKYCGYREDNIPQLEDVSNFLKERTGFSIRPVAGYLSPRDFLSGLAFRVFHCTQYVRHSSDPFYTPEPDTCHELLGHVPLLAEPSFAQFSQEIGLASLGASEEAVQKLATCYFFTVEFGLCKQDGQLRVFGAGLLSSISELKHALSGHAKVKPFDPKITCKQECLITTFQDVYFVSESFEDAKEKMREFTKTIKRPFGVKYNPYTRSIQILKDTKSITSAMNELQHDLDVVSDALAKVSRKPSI
Test: TPH1 in vitro inhibition assay (kinetic fluorescence)
Assay type: biochemical
Outline: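 Final mix: 15 nM MBP-TPH1, 30 μM Trp, 36 μM 6-methyltetrahydropterin, 25 μM ferrous ammonium sulfate, 50 mM MES pH 7.1, 1% DMSO, room temperature.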

[1] = read-out: TPH1 Range (TPH1 inhibition IC50)
[2] = TPH1 Range (TPH1 inhibition IC50)

| SMILES | IC50 [1] | IC50 [2] |
| --- | --- | --- |
| Nc1ccc(-c2cc(Cl)ccc2[C@@H](Oc2cc(N3CCC4(CC3)CNC(C(=O)O)C4)nc(N)n2)C(F)(F)F)cc1 (stereo partly drawn) [Example 34h, 8-(2-amino-6-((R)-1-(4′-amino-5-chloro-[1,1′-biphenyl]-2-yl)-2,2,2-trifluoroethoxy)pyrimidin-4-yl)-2,8-diazaspiro[4.5]decane-3-carboxylic acid] | 300 to 3000 nM | – |
| Cc1cccc(-c2cc(Cl)ccc2[C@@H](Oc2cc(N3CCC4(CC3)CN[C@H](C(=O)O)C4)nc(N)n2)C(F)(F)F)n1 [Example 34i, (S)-8-(2-amino-6-((R)-1-(4-chloro-2-(6-methylpyridin-2-yl)phenyl)-2,2,2-trifluoroethoxy)pyrimidin-4-yl)-2,8-diazaspiro[4.5]decane-3-carboxylic acid] | – | 50 to 300 nM |
| CCS(=O)(=O)c1cccc(-c2cc(Cl)ccc2[C@@H](Oc2cc(N3CCC4(CC3)CN[C@H](C(=O)O)C4)nc(N)n2)C(F)(F)F)c1 [Example 34j, (S)-8-(2-amino-6-((R)-1-(5-chloro-3′-(ethylsulfonyl)-[1,1′-biphenyl]-2-yl)-2,2,2-trifluoroethoxy)pyrimidin-4-yl)-2,8-diazaspiro[4.5]decane-3-carboxylic acid] | 50 to 300 nM | – |
| CCCS(=O)(=O)c1cccc(-c2cc(Cl)ccc2[C@@H](Oc2cc(N3CCC4(CC3)CN[C@H](C(=O)O)C4)nc(N)n2)C(F)(F)F)c1 [Example 34k, (S)-8-(2-amino-6-((R)-1-(5-chloro-3′-(propylsulfonyl)-[1,1′-biphenyl]-2-yl)-2,2,2-trifluoroethoxy)pyrimidin-4-yl)-2,8-diazaspiro[4.5]decane-3-carboxylic acid] | 50 to 300 nM | – |
| CCCCS(=O)(=O)c1cccc(-c2cc(Cl)ccc2[C@@H](Oc2cc(N3CCC4(CC3)CN[C@H](C(=O)O)C4)nc(N)n2)C(F)(F)F)c1 [Example 34l, (S)-8-(2-amino-6-((R)-1-(3′-(butylsulfonyl)-5-chloro-[1,1′-biphenyl]-2-yl)-2,2,2-trifluoroethoxy)pyrimidin-4-yl)-2,8-diazaspiro[4.5]decane-3-carboxylic acid] | 50 to 300 nM | – |
| Nc1nc(O[C@H](c2ccc(Cl)cc2-c2cccc(CO)c2)C(F)(F)F)cc(N2CCC3(CC2)CN[C@H](C(=O)O)C3)n1 [Example 34m, (S)-8-(2-amino-6-((R)-1-(5-chloro-3′-(hydroxymethyl)-[1,1′-biphenyl]-2-yl)-2,2,2-trifluoroethoxy)pyrimidin-4-yl)-2,8-diazaspiro[4.5]decane-3-carboxylic acid] | 50 to 300 nM | – |
| CS(=O)(=O)Nc1cccc(-c2cc(Cl)ccc2[C@@H](Oc2cc(N3CCC4(CC3)CN[C@H](C(=O)O)C4)nc(N)n2)C(F)(F)F)c1 [Example 34n, (S)-8-(2-amino-6-((R)-1-(5-chloro-3′-(methylsulfonamido)-[1,1′-biphenyl]-2-yl)-2,2,2-trifluoroethoxy)pyrimidin-4-yl)-2,8-diazaspiro[4.5]decane-3-carboxylic acid] | – | 50 to 300 nM |
| Nc1nc(O[C@H](c2ccc(Cl)cc2-c2cccc(N3CCCC3=O)c2)C(F)(F)F)cc(N2CCC3(CC2)CN[C@H](C(=O)O)C3)n1 [Example 34o, (S)-8-(2-amino-6-((R)-1-(5-chloro-3′-(2-oxopyrrolidin-1-yl)-[1,1′-biphenyl]-2-yl)-2,2,2-trifluoroethoxy)pyrimidin-4-yl)-2,8-diazaspiro[4.5]decane-3-carboxylic acid] | – | 50 to 300 nM |
| CN1CCN(c2cccc(-c3cc(Cl)ccc3[C@@H](Oc3cc(N4CCC5(CC4)CN[C@H](C(=O)O)C5)nc(N)n3)C(F)(F)F)c2)C1=O [Example 34p, (S)-8-(2-amino-6-((R)-1-(5-chloro-3′-(3-methyl-2-oxoimidazolidin-1-yl)-[1,1′-biphenyl]-2-yl)-2,2,2-trifluoroethoxy)pyrimidin-4-yl)-2,8-diazaspiro[4.5]decane-3-carboxylic acid] | 50 to 300 nM | – |
| Nc1nc(O[C@H](c2ccc(Cl)cc2-c2cccc(C(F)(F)F)c2)C(F)(F)F)cc(N2CCC3(CC2)CN[C@H](C(=O)O)C3)n1 [Example 34q, (S)-8-(2-amino-6-((R)-1-(5-chloro-3′-(trifluoromethyl)-[1,1′-biphenyl]-2-yl)-2,2,2-trifluoroethoxy)pyrimidin-4-yl)-2,8-diazaspiro[4.5]decane-3-carboxylic acid] | – | < 50 nM |
| Cn1ccc(-c2cc(Cl)ccc2[C@@H](Oc2cc(N3CCC4(CC3)CN[C@H](C(=O)O)C4)nc(N)n2)C(F)(F)F)n1 [Example 34t, (S)-8-(2-amino-6-((R)-1-(4-chloro-2-(1-methyl-1H-pyrazol-3-yl)phenyl)-2,2,2-trifluoroethoxy)pyrimidin-4-yl)-2,8-diazaspiro[4.5]decane-3-carboxylic acid] | 50 to 300 nM | – |
| N#Cc1cccc(-c2cc(Cl)ccc2[C@@H](Oc2cc(N3CCC4(CC3)CN[C@H](C(=O)O)C4)nc(N)n2)C(F)(F)F)c1 [Example 34x, (S)-8-(2-amino-6-((R)-1-(5-chloro-3′-cyano-[1,1′-biphenyl]-2-yl)-2,2,2-trifluoroethoxy)pyrimidin-4-yl)-2,8-diazaspiro[4.5]decane-3-carboxylic acid] | – | < 50 nM |
| COc1cccc(-c2cc(Cl)ccc2[C@@H](Oc2cc(N3CCC4(CC3)CN[C@H](C(=O)O)C4)nc(N)n2)C(F)(F)F)c1 [Example 34y, (S)-8-(2-amino-6-((R)-1-(5-chloro-3′-methoxy-[1,1′-biphenyl]-2-yl)-2,2,2-trifluoroethoxy)pyrimidin-4-yl)-2,8-diazaspiro[4.5]decane-3-carboxylic acid] | – | < 50 nM |
| NCc1cccc(-c2cc(Cl)ccc2[C@@H](Oc2cc(N3CCC4(CC3)CN[C@H](C(=O)O)C4)nc(N)n2)C(F)(F)F)c1 [Example 34z, (S)-8-(2-amino-6-((R)-1-(3′-(aminomethyl)-5-chloro-[1,1′-biphenyl]-2-yl)-2,2,2-trifluoroethoxy)pyrimidin-4-yl)-2,8-diazaspiro[4.5]decane-3-carboxylic acid] | < 50 nM | – |
| CCOC(=O)c1cccc(-c2cc(Cl)ccc2[C@@H](Oc2cc(N3CCC4(CC3)CN[C@H](C(=O)O)C4)nc(N)n2)C(F)(F)F)c1 [Example 35, (S)-8-(2-amino-6-((R)-1-(5-chloro-3′-(ethoxycarbonyl)-[1,1′-biphenyl]-2-yl)-2,2,2-trifluoroethoxy)pyrimidin-4-yl)-2,8-diazaspiro[4.5]decane-3-carboxylic acid] | 50 to 300 nM | – |
| COCCOc1cc(Cl)ccc1[C@@H](Oc1cc(N2CCC3(CC2)CN[C@H](C(=O)O)C3)nc(N)n1)C(F)(F)F [Example 36, (S)-8-(2-amino-6-((R)-1-(4-chloro-2-(2-methoxyethoxy)phenyl)-2,2,2-trifluoroethoxy)pyrimidin-4-yl)-2,8-diazaspiro[4.5]decane-3-carboxylic acid] | 3000 to 10000 nM | – |
| Nc1nc(O[C@H](c2ccc(Cl)cc2-n2cnc3ccccc32)C(F)(F)F)cc(N2CCC3(CC2)CN[C@H](C(=O)O)C3)n1 [Example 36b, (S)-8-(6-((R)-1-(2-(1H-benzo[d]imidazol-1-yl)-4-chlorophenyl)-2,2,2-trifluoroethoxy)-2-aminopyrimidin-4-yl)-2,8-diazaspiro[4.5]decane-3-carboxylic acid] | 50 to 300 nM | – |
| Nc1nc(O[C@H](c2ccc(Cl)cc2-n2ncc3ccccc32)C(F)(F)F)cc(N2CCC3(CC2)CN[C@H](C(=O)O)C3)n1 [Example 36c, (S)-8-(2-amino-6-((R)-1-(4-chloro-2-(1H-indazol-1-yl)phenyl)-2,2,2-trifluoroethoxy)pyrimidin-4-yl)-2,8-diazaspiro[4.5]decane-3-carboxylic acid] | < 50 nM | – |
| Nc1nc(O[C@H](c2ccc(Br)cc2N2CCNCC2)C(F)(F)F)cc(N2CCC3(CC2)CN[C@H](C(=O)O)C3)n1 [Example 36d, (S)-8-(2-amino-6-((R)-1-(4-bromo-2-(piperazin-1-yl)phenyl)-2,2,2-trifluoroethoxy)pyrimidin-4-yl)-2,8-diazaspiro[4.5]decane-3-carboxylic acid] | 3000 to 10000 nM | – |
| CC(C)Oc1ccc(-c2ccc([C@@H](Oc3cc(N4CCC5(CC4)CN[C@H](C(=O)O)C5)nc(N)n3)C(F)(F)F)c(N3CCNCC3)c2)cc1 [Example 36e, (S)-8-(2-amino-6-((R)-2,2,2-trifluoro-1-(4′-isopropoxy-3-(piperazin-1-yl)-[1,1′-biphenyl]-4-yl)ethoxy)pyrimidin-4-yl)-2,8-diazaspiro[4.5]decane-3-carboxylic acid] | 300 to 3000 nM | – |
| CC(C)Oc1ccc(-c2ccc([C@@H](Oc3cc(N4CCC5(CC4)CN[C@H](C(=O)O)C5)nc(N)n3)C(F)(F)F)c(N3CCOCC3)c2)cc1 [Example 36f, (S)-8-(2-amino-6-((R)-2,2,2-trifluoro-1-(4′-isopropoxy-3-morpholino-[1,1′-biphenyl]-4-yl)ethoxy)pyrimidin-4-yl)-2,8-diazaspiro[4.5]decane-3-carboxylic acid] | 50 to 300 nM | – |
| Nc1nc(O[C@H](c2ccccc2-c2ccccc2)C(F)(F)F)cc(N2CCC3(CC2)CN[C@H](C(=O)O)C3)n1 [Example 36g, (S)-8-(6-((R)-1-([1,1′-biphenyl]-2-yl)-2,2,2-trifluoroethoxy)-2-aminopyrimidin-4-yl)-2,8-diazaspiro[4.5]decane-3-carboxylic acid] | < 50 nM | – |
| CC(Oc1cc(N2CCC3(CC2)CN[C@H](C(=O)O)C3)nc(N)n1)C1C2CC3CC(C2)CC1C3 (stereo partly drawn) [Example 37, (3S)-8-(6-(1-((1r,3r,5S,7S)-adamantan-2-yl)ethoxy)-2-aminopyrimidin-4-yl)-2,8-diazaspiro[4.5]decane-3-carboxylic acid] | 3000 to 10000 nM | – |
